Molecular target: T1, Retinoic acid receptor RXR-alpha (Homo sapiens, UniProt P19793)
T1 sequence (P19793 whole entry): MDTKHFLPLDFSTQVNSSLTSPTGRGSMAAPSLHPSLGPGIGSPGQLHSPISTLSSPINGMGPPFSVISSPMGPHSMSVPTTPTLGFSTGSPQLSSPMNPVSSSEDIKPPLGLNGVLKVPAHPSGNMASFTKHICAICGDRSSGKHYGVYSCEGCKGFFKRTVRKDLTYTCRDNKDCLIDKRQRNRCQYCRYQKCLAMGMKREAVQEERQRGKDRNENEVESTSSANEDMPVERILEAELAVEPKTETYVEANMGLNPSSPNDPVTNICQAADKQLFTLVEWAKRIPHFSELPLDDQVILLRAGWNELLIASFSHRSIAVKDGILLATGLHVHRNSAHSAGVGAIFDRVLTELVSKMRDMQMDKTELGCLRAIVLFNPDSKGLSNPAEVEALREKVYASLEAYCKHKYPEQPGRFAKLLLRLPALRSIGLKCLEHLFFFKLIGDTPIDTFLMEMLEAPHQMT
Assay: Displacement of CU-6PMN from human RXRalpha LBD incubated for 2 hrs by fluorescence based assay; call rule not given here

CC/C=C\C/C=C\C/C=C\C/C=C\C/C=C\CCCC(=O)O [ICOSAPENT]
Ki (read-out: Ki): 7.63 µM

CCCCCCCCCCCCCCCC(=O)O [PALMITIC ACID]
Ki: Not Active

From ChEMBL document CHEMBL4414573, “Competitive Binding Assay with an Umbelliferone-Based Fluorescent Rexinoid for Retinoid X Receptor Ligand Screening” (J Med Chem, 2019)
